The target of data set [1] is T1, C-X-C chemokine receptor type 3 (Homo sapiens, UniProt P49682).
T1 sequence (P49682 whole entry): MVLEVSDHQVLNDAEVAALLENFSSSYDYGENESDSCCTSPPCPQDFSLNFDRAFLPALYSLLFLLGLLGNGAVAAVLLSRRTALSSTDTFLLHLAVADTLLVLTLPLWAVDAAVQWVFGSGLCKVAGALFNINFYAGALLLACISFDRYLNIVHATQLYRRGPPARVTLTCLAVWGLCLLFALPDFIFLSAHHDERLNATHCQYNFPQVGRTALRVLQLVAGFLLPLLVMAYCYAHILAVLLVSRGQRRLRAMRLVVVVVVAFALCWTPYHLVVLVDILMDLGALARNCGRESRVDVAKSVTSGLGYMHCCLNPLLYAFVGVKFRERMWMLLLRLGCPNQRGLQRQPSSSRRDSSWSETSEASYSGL
Kind of data set: Antagonist activity at human CXCR3 expressed in CHO cell […] assessed as inhibition of calcium flux by FLIPR. The class given is functional, cell-based. Background: Calcium flux is commonly read through the fluorescence of an indicator in the cells.

Data set [2] concerns the target T2, C-X-C chemokine receptor type 3 (Mus musculus, UniProt O88410).
T2 sequence (O88410 whole entry): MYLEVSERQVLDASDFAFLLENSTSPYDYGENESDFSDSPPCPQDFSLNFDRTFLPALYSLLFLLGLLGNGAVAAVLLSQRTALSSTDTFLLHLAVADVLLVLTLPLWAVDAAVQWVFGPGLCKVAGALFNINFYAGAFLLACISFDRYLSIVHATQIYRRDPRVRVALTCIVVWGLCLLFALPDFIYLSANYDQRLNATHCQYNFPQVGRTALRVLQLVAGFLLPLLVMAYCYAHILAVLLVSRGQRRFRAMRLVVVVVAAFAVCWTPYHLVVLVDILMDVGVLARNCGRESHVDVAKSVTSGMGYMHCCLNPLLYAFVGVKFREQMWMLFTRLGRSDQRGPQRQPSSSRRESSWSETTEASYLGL
Kind of data set: Displacement of [125I]-CXCL10 from mouse CXCR3 expressed in CHO cell membrane. The class given is cell membranes. On the technique in general: Displacement assays read how much labelled ligand stays bound in the presence of the test substance.

Data set [3] concerns the target T1, C-X-C chemokine receptor type 3. Nature of the data set: Displacement of [125I]-CXCL10 from human CXCR3 expressed in CHO cell membrane. The class given is cell membranes.
Data set [4] in a line: Metabolic stability in mouse liver microsomes assessed as half life. The class given is ADME, Microsome.

In general, IC50 refers to the midpoint of a concentration-inhibition curve. As a reminder, the half-life is the time in which the quantity being followed falls by half.

Turning to `N=c1n(CC(=O)c2ccc(Cl)cc2)c2cccc(Cl)c2n1CC1CCCN(C(=O)c2cccc3cccnc23)C1` (centres undefined), the results for the IC50 in data set [1], in data set [2] and in data set [3] were 20 nM, 80 nM and 15 nM, respectively.

For `CN(CCn1c(=N)n(CC(=O)c2ccc(Cl)cc2)c2ccccc21)C(=O)Cc1ccccc1`, the IC50 in data set [1] worked out at 800 nM; in data set [3], 400 nM.

Consider `CCOC(=O)CCn1c(=N)n(CC(=O)c2ccc(Cl)cc2)c2ccccc21`, for which the IC50 was 2500 nM in data set [1] and 1200 nM in data set [3].

`CC(=O)N(C)CCn1c(=N)n(CC(=O)c2ccc(Cl)cc2)c2ccccc21`: the IC50 in data set [1] worked out at 3400 nM; in data set [3], 1300 nM.

In turn, `Cn1c(=N)n(CC(=O)c2ccc(Cl)cc2)c2ccccc21` yielded a concentration for half-maximal inhibition (IC50) in data set [3] of 700 nM.

Turning to `CN(CCCn1c(=N)n(CC(=O)c2ccc(Cl)cc2)c2cccc(Cl)c21)C(=O)c1ccccc1`, the IC50 was determined as 20 nM in data set [1], 800 nM in data set [2] and 300 nM in data set [3].

Turning to `CN(CCCn1c(=N)n(CC(=O)c2ccc(Cl)cc2)c2cccc(Cl)c21)C(=O)c1ccccn1`, the IC50 was found to be 20 nM in data set [1], 200 nM in data set [2] and 30 nM in data set [3].

Take `CCn1c(=N)n(CC(=O)c2ccc(Cl)cc2)c2ccccc21`: the IC50 in data set [1] was found to be 3500 nM; in data set [3], 700 nM.

On to `CCc1cccc2c1n(CCCN(C)C(=O)Cc1ccccc1)c(=N)n2CC(=O)c1ccc(Cl)cc1`, for which the IC50 in data set [1] is 100 nM; in data set [2] it was 1800 nM; in data set [3] it was 200 nM.

With `N=c1n(CC(=O)c2ccc(Cl)cc2)c2cccc(Cl)c2n1C[C@H]1CCCN(C(=O)c2cccc3cccnc23)C1`, the values for the IC50 in data set [1], in data set [2] and in data set [3] were 20 nM, 70 nM and 16 nM, respectively.

With `COc1ccccc1C(=O)N(C)CCCn1c(=N)n(CC(=O)c2ccc(Cl)cc2)c2cccc(Cl)c21`, the half-inhibitory concentration (IC50) was 20 nM in data set [1], 150 nM in data set [2] and 50 nM in data set [3]. Moreover, the half-life in data set [4] came to 5.4 min.

Take `CN(Cc1ccccc1)C(=O)CCn1c(=N)n(CC(=O)c2ccc(Cl)cc2)c2ccccc21`: the IC50 in data set [1] worked out at 200 nM; in data set [3] it was 400 nM.

Take `CN(CCn1c(=N)n(CC(=O)c2ccc(Cl)cc2)c2ccccc21)C(=O)c1ccccc1`: the IC50 in data set [1] is 2300 nM; in data set [3], 300 nM.

In the case of `CN(CCCn1c(=N)n(CC(=O)c2ccc(Cl)cc2)c2cccc(Cl)c21)C(=O)c1cccc2cccnc12`, the 50% inhibitory concentration (IC50) in data set [1] worked out at 20 nM; in data set [2], 50 nM; in data set [3] it was 20 nM. For the same molecule, the half-life in data set [4] was 15 min.

For `N=c1n(CC(=O)c2ccc(Cl)cc2)c2cccc(Cl)c2n1CCCN(C(=O)c1cccc2cccnc12)C1CC1`, the results for the 50% inhibitory concentration (IC50) in data set [1], in data set [2] and in data set [3] were 10 nM, 1100 nM and 20 nM, respectively.

Take `CN(CCCn1c(=N)n(CC(=O)c2ccc(Cl)cc2)c2cccc(Cl)c21)C(=O)C(C)(C)C`: the 50% inhibitory concentration (IC50) in data set [1] was 400 nM; in data set [3] it was 600 nM.

`CCCn1c(=N)n(CC(=O)c2ccc(Cl)cc2)c2ccccc21` showed a half-inhibitory concentration (IC50) in data set [3] of 1100 nM.

With `CN(CCCCn1c(=N)n(CC(=O)c2ccc(Cl)cc2)c2cccc(Cl)c21)C(=O)Cc1ccccc1`, the half-maximal inhibitory concentration (IC50) in data set [1] and in data set [3] was 400 nM in each case.

For the molecule `CN(CCn1c(=N)n(CC(=O)c2ccc(Cl)cc2)c2ccccc21)C(=O)C1CCCCC1`, the figures for the concentration for half-maximal inhibition (IC50) in data set [1] and in data set [3] were 900 nM and 500 nM, respectively.

In the case of `CN(CCCn1c(=N)n(CC(=O)c2ccc(Cl)cc2)c2cccc(Cl)c21)C(=O)Cc1ccccc1`, the IC50 in data set [1] came to 70 nM; in data set [2], 1400 nM; in data set [3], 300 nM.

Take `N=c1n(CC(=O)c2ccc(Cl)cc2)c2cccc(Cl)c2n1CC[C@@H]1CCCN1C(=O)c1cccc2cccnc12`: the IC50 in data set [1] stood at 20 nM; in data set [2], 40 nM; in data set [3], 8 nM. Besides, the half-life in data set [4] is 7.5 min.

For `CN(CCCn1c(=N)n(CC(=O)c2ccc(Cl)cc2)c2cccc(Cl)c21)C(=O)c1ccc2ccccc2c1`, the IC50 was found to be 40 nM in data set [1], 500 nM in data set [2] and 15 nM in data set [3]. Moreover, in data set [4], the half-life was determined as 9.5 min.

As to `CN(CCn1c(=N)n(CC(=O)c2ccc(Cl)cc2)c2cccc(Cl)c21)C(=O)Cc1ccccc1`, the half-maximal inhibitory concentration (IC50) in data set [1] is 300 nM; in data set [2], 1500 nM; in data set [3] it was 400 nM.

Take `N=c1n(CC(=O)c2ccc(Cl)cc2)c2cccc(Cl)c2n1C[C@@H]1CCCN(C(=O)c2cccc3cccnc23)C1`: the IC50 in data set [1] came to 20 nM; in data set [2], 60 nM; in data set [3], 15 nM.

As to `CN(Cc1ccccc1)C(=O)Cn1c(=N)n(CC(=O)c2ccc(Cl)cc2)c2ccccc21`, in data set [3], the IC50 amounted to 2200 nM.

The values above are taken from ChEMBL document CHEMBL1143901, “Lead identification of 2-iminobenzimidazole antagonists of the chemokine receptor CXCR3” (Bioorg Med Chem Lett, 2008).
